From patent US20060167106A1, “Compounds acting at the centrosome” (priority 2004, published 2006)
Entries after “also recorded” stand apart in the source; their conditions may differ.

Assays:
[1] = system: 26S proteasome; experiment: Proteasome-sensor cells (HEK-293, GFP chimera), fluorescence imaging; format: cell-based; details: for accumulation of the GFP-based proteasome substrate at the center of the colonies: Compound 1 500 nM 20-40 hours, Velcade 50 or 500 nM 20 hours; for accumulation of GFP-labeled proteasome-targeting chimera protein, periphery of colony relative to center: HEK-293 colony, 500 nM; for proteasome inhibition activity in cell-based assays (overall statement): live proteasome-sensor cells
Text: Specifically, the proteasome-sensor cells are HEK-293 cells stably transfected with a vector (proteasome-sensor vector) that encodes naturally-occurring reef coral Zoanthus sp. green fluorescent protein (GFP) fused to a specific degradation motif that targets the fusion protein for removal by the 26S proteasome. The background fluorescence observed in normal cells with active proteasomes is low. When proteasomes are inhibited, the fluorescent protein quickly accumulates. […] Millennium Pharmaceuticals, Inc., Cambridge, Mass.). […] Velcade (Millennium Pharmaceuticals Inc.) was used as a positive control in this assay (at 5 nM, 50 nM, 500 nM or 5 μM). Velcade stock solution was prepared according to the manufacturer's instructions. GFP fluorescence of the cells was imaged at various time points using a standard filter for FITC with the Nikon TE300 microscope/digital imaging system described herein.

[2] = system: 26S proteasome; experiment: Proteasome-sensor cells, flow cytometry; format: cell-based
Method: The first measurement was determined by the increase of proteasome-sensor positive cells treated with Compound 1 or Velcade, as compared to DMSO, by using a cell line expressing the proteasome-sensor protein and flow cytometry analysis.
To measure the proteasome-inhibition effect of Compound 1, GFP fluorescence in the proteasome-sensor cells treated with Compound 1 and Velcade was measured using flow cytometry. […] Cells were harvested by treating the cells with 1×PBS for 5 minutes and pipetting the cells up and done 10 times. The cells were passed through a 100 μm-diameter filter before analyzing by FACS. A standard FITC filter was used for the FACS analysis. Quantitation of the proteasome-inhibitory effect of Compound 1 was determined by an increase in the percentage of GFP-positive cells, as compared to treatment with DMSO alone.
To further characterize the proteasome-inhibitory effect of Compound 1 in live cells, proteasome-sensor cells were treated with Compound 1 and the accumulation of the GFP-based proteasome substrate was measured by flow cytometry.

[3] = system: cell line expressing α-tubulin-YFP; experiment: α-tubulin-YFP expressing cell line, flow cytometry of strong fluorescent cells; format: cell-based
[4] = system: MDA-435 breast cancer cells; experiment: Multi-ubiquitin Western blotting in MDA-435 cells; format: cell-based; details: for increase of ubiquitinated proteins of the cell lysates: 500 nM
Method: Louis, Mo.) immediately before use, on ice for 1 hour. After scraping, the lysates were cleared by centrifugation at 13,000 RPM for 10 minutes at 4° C. Protein content was determined using a Bradford assay and bovine serum albumin as a standard (Bio-Rad Laboratories, Hercules, Calif.). Samples were solubilized by boiling in SDS sample buffer and subjected to SDS-PAGE. The proteins were subsequently transferred to a PVDF membrane (Bio-Rad, Hercules, Calif.). […] The alkaline phosphatase-conjugated secondary antibodies (Invitrogen, Carlsbad, Calif.) were diluted in blocking buffer and incubated with the blot for 1 hour at room temperature. The secondary antibodies were detected by the Western Breeze Chemiluminescent Kit (Invitrogen, Carlsbad, Calif.) and imaged using a Kodak 440 Image Station. Proteins targeted for degradation by the ubiquitin-dependent proteolytic pathway are tagged with multi-ubiquitin molecules. […] In this assay, accumulation of multi-ubiquitinated proteins in the cells is indicative of the impairment of proteasome activity.

[5] = biological target: T1, Aurora-A kinase (Homo sapiens, UniProt O14965); experiment: Aurora-A Kinase Assay (ELISA, Lats2 phosphorylation); format: biochemical; details: 50 nM to 50 μM
T1 construct: purchased MBL International (CycLex)
T1 sequence (O14965 1-403): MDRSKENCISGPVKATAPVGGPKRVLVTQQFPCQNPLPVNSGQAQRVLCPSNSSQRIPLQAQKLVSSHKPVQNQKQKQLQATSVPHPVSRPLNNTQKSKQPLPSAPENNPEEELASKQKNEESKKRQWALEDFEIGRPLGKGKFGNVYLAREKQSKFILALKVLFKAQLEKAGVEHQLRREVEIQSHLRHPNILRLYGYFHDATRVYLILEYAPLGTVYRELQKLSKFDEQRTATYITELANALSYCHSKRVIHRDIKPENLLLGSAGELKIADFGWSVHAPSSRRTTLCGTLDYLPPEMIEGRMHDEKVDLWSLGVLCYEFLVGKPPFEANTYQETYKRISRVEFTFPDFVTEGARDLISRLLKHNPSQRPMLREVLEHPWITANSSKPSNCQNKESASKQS
Method: In the assay, the amount of phosphorylated substrate is measured by binding to ST-3B11, an anti-phospho-Lats2 serine83 monoclonal antibody, subsequently incubating with horseradish peroxidase-conjugated anti-mouse IgG, which then catalyzes the conversion of the chromogenic substrate tetra-methylbenzidine (TMB) from a colorless solution to a blue solution. The color is then quantified by spectrophotometry, which reflects the relative amount of Aurora-A activity in the sample.
The assay was then performed according to the manufacturer's instructions using 40 Units/well of recombinant Aurora A enzyme. In the ‘enzyme control’ Aurora A enzyme and the ‘ATP minus control’, ATP was omitted from the reaction mixture. […] The color was quantified using a spectrophotometer (Perkin Elmer HTS 7000 Bio Assay Reader) at 450/535 nm wavelengths.

[6] = system: bovine microtubule-associated protein (MAP)-free tubulin; experiment: Tubulin Polymerization Assay (MAP-free tubulin); format: biochemical
Method: For in vitro tubulin polymerization assays, lyophilized bovine microtubule-associated protein (MAP)-free tubulin and PEM buffer (80 mM Na-PIPES (pH 6.9), 1 mM MgCl2, 1 mM EGTA) were purchased from Cytoskeleton (Denver, Colo.). MAP-free tubulin (1.5 mg/ml) was incubated with the test compounds, 0.5 μM Compound 1, 3 μM Taxol, 0.5 μM Compound 1+3 μM Taxol or 0.5 μM Compound 1+30 nM Taxol in PEM-0.3% DMSO. Absorbance at 340 nm was measured every minute for 60 min at 37° C. using a Perkin Elmer HTS 7000 spectrophotometer.

[7] = system: bovine brain microtubule-associated protein (MAP)-rich tubulin; experiment: MAP-Rich Tubulin Polymerization Assay; format: biochemical; details: 0.5 μM Compound 1 alone or with 3 μM Taxol
Method: In vitro tubulin polymerization assays were repeated in the presence of microtubule-associated proteins (MAPs). Lyophilized bovine brain microtubule-associated protein (MAP)-rich tubulin and PEM buffer (80 mM Na-PIPES (pH 6.9), 1 mM MgCl2, 1 mM EGTA) were purchased from Cytoskeleton (Denver, Colo.). […] Absorbance at 340 nm was measured every minute for 60 minutes at 37° C. using a Perkin Elmer HTS 7000 spectrophotometer.

[8] = system: HeLa cells; experiment: Oregon Green 488-Taxol localization in HeLa cells; format: cell-based; details: 0.5 μM Compound 1
Method: A fluorescent compound, Oregon Green 488-Taxol (Molecular Probes/Invitrogen), was utilized to determine the distribution of Taxol in CHO cells (FIG. 33). In addition, the targeting of fluorescent Taxol to centrosomes was examined in Compound 1-treated cells (FIG. 34). Non-transfected wild-type CHO cells and HeLa cells were cultured in 2-well chambered cover-slips for 24-48 hours before treatment. Oregon Green 488-Taxol stock solution was made with DMSO. […] Oregon Green 488-Taxol fluorescence in living cells or fixed cells was imaged using a standard filter for FITC with the Nikon TE300 microscope/digital imaging system.

CN(NC(=O)CC(=O)NN(C)C(=S)c1ccccc1)C(=S)c1ccccc1 [Compound 1]
accumulation of the GFP-based proteasome substrate at the center of the colonies ([1]; FIG. 14): did not cause significant accumulation | accumulation of the GFP-based proteasome substrate at the periphery of the colonies ([1]; FIG. 14, Compound 1 500 nM, 20-40 hours): significant accumulation of the GFP-based proteasome substrate | accumulation of proteasome-sensor protein in cells ([1]; HEK-293, 1 nM, 20 hours): accumulation of proteasome-sensor protein in cells | accumulation of proteasome-sensor protein in cells ([1]; HEK-293, 5 nM, 20 hours): accumulation of proteasome-sensor protein in cells | accumulation of proteasome-sensor protein in cells ([1]; HEK-293, 10 nM, 20 hours): accumulation of proteasome-sensor protein in cells | accumulation of proteasome-sensor protein in cells ([1]; HEK-293, 50 nM, 20 hours): induced an increase of the GFP-based proteasome substrate in the cytoplasm in some scattered cells; also recorded: accumulation of proteasome-sensor protein in cells | accumulation of proteasome-sensor protein in cells ([1]; HEK-293, 100 nM, 20 hours): significantly increased the GFP signal in the cytosol; also recorded: accumulation of proteasome-sensor protein in cells | accumulation of proteasome-sensor protein in cells ([1]; HEK-293, 0.5 μM, 24 hours): accumulation of proteasome-sensor protein in cells | accumulation of proteasome-sensor protein in cells ([1]; HEK-293, 500 nM, 20 hours): accumulation of proteasome-sensor protein in cells | accumulation of GFP-labeled proteasome-targeting chimera protein, periphery of colony relative to center ([1]; 20 hours): stronger accumulation at the periphery of the colony | accumulation of GFP-labeled proteasome-targeting chimera protein, periphery of colony relative to center ([1]; 40 hours): stronger accumulation at the periphery of the colony | distribution of GFP-labeled proteasome-targeting chimera protein ([1]; HEK-293 proteasome-sensor cell, 5 μM, 24 hours): general, broad distribution of GFP-labeled proteasome-targeting chimera protein in both the cytosol and nucleus | proteasome inhibition activity in cell-based assays (overall statement) [1]: weak-to-moderate proteasome inhibitory effect in live cells; also recorded: moderate proteasome inhibition activity; also recorded: weak/moderate proteasome inhibitor | proteasome inhibition activity in cell-based assays (overall statement) ([1]; listed as GMP-grade Compound 1): detectable level of proteasome inhibition activity | increase of the fluorescent positive cells (proteasome-sensor positive) compared to DMSO ([2]; 500 nM): 14.53% | increase of fluorescence (non-gated flow cytometry) ([2]; 500 nM, 20 hours): significant increase of fluorescence | increase in fluorescent cell population, lower than that of cells treated with Velcade ([2]; Compound 1 500 nM versus Velcade 100 nM, 20 hours): about 4 fold | increase of the strong-fluorescent positive cells compared to DMSO ([3]; 500 nM): 20.37% | accumulation of ubiquitinated proteins / level of proteasome inhibition compared with Velcade ([4]; 0.5 μM Compound 1 versus Velcade 500 nM (and 5 nM), Western blot): significantly less accumulation of ubiquitinated proteins in cultured cells than Velcade; also recorded: below that of the positive control | increase of ubiquitinated proteins of the cell lysates ([4]; 6 hours of treatment in cell culture): 210.03 | increase of ubiquitinated proteins of the cell lysates ([4]; 24 hours of treatment in cell culture): 243.11 | accumulation of multi-ubiquitinated proteins ([4]; MDA-435 cells, 0.5 μM, 6 and 24 hours): induced the accumulation of multi-ubiquitinated proteins | inhibition of the phosphorylation of Lats2 by Aurora-A kinase [5]: did not inhibit the phosphorylation of Lats2 by Aurora-A kinase | effect on the kinetics of tubulin polymerization ([6]; 0.5 μM): no effect on the kinetics of tubulin polymerization | influence on the effect of Taxol on tubulin polymerization ([6]; 0.5 μM Compound 1 with 3 μM or 30 nM Taxol): did not influence the effect of either high dose (3 μM) or low dose (30 nM) of Taxol on tubulin polymerization | influence on MAP-enriched tubulin polymerization [7]: does not influence MAP-enriched tubulin polymerization | effect on the accumulation of Taxol (Oregon Green 488-Taxol) at centrosomes [8]: no effect on the accumulation of Taxol at centrosomes

CC(C)C[C@H](NC(=O)[C@H](Cc1ccccc1)NC(=O)c1cnccn1)B(O)O [Velcade]
accumulation of the GFP-based proteasome substrate at the center of the colonies ([1]; FIG. 14): greater accumulation of the GFP-based proteasome substrate in cells at the colony center than did Compound 1 | accumulation of proteasome-sensor protein in cells ([1]; HEK-293, 1 nM, 20 hours): accumulation of proteasome-sensor protein in cells | accumulation of proteasome-sensor protein in cells ([1]; HEK-293, 5 nM, 20 hours): significantly induced an increase of GFP signal; also recorded: accumulation of proteasome-sensor protein in cells | accumulation of proteasome-sensor protein in cells ([1]; HEK-293, 10 nM, 20 hours): accumulation of proteasome-sensor protein in cells | accumulation of proteasome-sensor protein in cells ([1]; HEK-293, 50 nM, 20 hours): accumulation of proteasome-sensor protein in cells | accumulation of proteasome-sensor protein in cells ([1]; HEK-293, 100 nM, 20 hours): accumulation of proteasome-sensor protein in cells | accumulation of proteasome-sensor protein in cells ([1]; HEK-293, 100 nM, 24 hours): accumulation of proteasome-sensor protein in cells | accumulation of proteasome-sensor protein in cells ([1]; HEK-293, 500 nM, 20 hours): accumulation of proteasome-sensor protein in cells | increase of the fluorescent positive cells (proteasome-sensor positive) compared to DMSO ([2]; 100 nM): 58.26% | increase of fluorescence (non-gated flow cytometry) ([2]; 100 nM, 20 hours): significant increase of fluorescence | increase of the strong-fluorescent positive cells compared to DMSO ([3]; 50 nM): 27.74%
